From patent US20240116946A1 (Gilead Sciences, Inc., priority 2022, published 2024)
Read-outs that look alike come from different tables or passages of the source.

Key:
[1] = biological target: recombinant SARS-CoV-2 Main protease (Mpro) (Severe acute respiratory syndrome coronavirus 2 (2019-nCoV) (SARS-CoV-2), UniProt P0DTD1); assay: Cov Mpro Biochemical IC50 Assay; conditions: read-out: MPro IC50
SARS-CoV-2-NLuc = assay: microbe, parasite or virus in culture; assay type: cell-based, SARS Coronavirus 2
[2] = recombinant SARS-CoV-2 Mpro 7.5 nM, fluorogenic peptide substrate 40 μM
[3] = Severe acute respiratory syndrome coronavirus, 48 h, read-out: MPro EC50
[4] = recombinant SARS-CoV-2 Mpro, fluorogenic peptide substrate
[5] = Severe acute respiratory syndrome coronavirus, 48 h; read-out: MPro EC50

Structure (SMILES)	IC50 [1, 2] [nM]	EC50 (SARS-CoV-2-NLuc; [3]) [nM]	IC50 [1, 4] [nM]	EC50 (SARS-CoV-2-NLuc; [5]) [nM]	EC50 (SARS-CoV-2-NLuc; read-out: MPro EC50) [nM]
N#CCCn1c(=O)n(-c2cncc3ccccc23)c(=O)c2sc(-c3ccccc3C#N)cc21 [Example 819, 2-(1-(2-cyanoethyl)-3-(isoquinolin-4-yl)-2,4-dioxo-1,2,3,4-tetrahydrothieno[3,2-d]pyrimidin-6-yl)benzonitrile]	10.3	11.3	–	–	–
COc1ccc(Cl)c(-c2cc3[nH]c(=O)n(-c4cncc(C5CC5)c4)c(=O)c3s2)c1 [Example 367]	–	–	8.9	21.1	–
COc1cc(-c2cc3c(s2)c(=O)n(-c2cncc4ccsc24)c(=O)n3CC#N)c(Cl)cc1F [Example 653]	2.58	4.45	–	–	–
COc1cc(-c2cc3c(s2)c(=O)n(-c2cncc4nn(C)cc24)c(=O)n3CCC#N)c(Cl)cc1F [Example 909]	5.94	12.3	–	–	–
CCOc1ccc(Cl)c(-c2ccc3c(=O)n(-c4cncc5ccccc45)c(=O)[nH]c3c2)c1 [Example 300]	–	60.5	148	–	–
COc1cc(-c2cc3[nH]c(=O)n(-c4cncc5c4c(C)nn5C)c(=O)c3s2)c(Cl)cc1F [Example 752]	6.96	8.41	–	–	–
O=c1[nH]c2cc(-c3ccccc3Cl)sc2c(=O)n1-c1cncc2sccc12 [Example 336]	–	7.02	4.68	–	–
COc1cc(Cl)c(-c2cc3[nH]c(=O)n(-c4cncc5ccccc45)c(=O)c3s2)cc1Cl [Example 724]	9.42	17.1	–	–	–
COc1cccc(C#N)c1-c1cc2c(s1)c(=O)n(-c1cncc3cnn(C)c13)c(=O)n2CCC#N [Example 838, 2-(1-(2-cyanoethyl)-3-(1-methyl-1H-pyrazolo[4,3-c]pyridin-7-yl)-2,4-dioxo-1,2,3,4-tetrahydrothieno[3,2-d]pyrimidin-6-yl)-3-methoxybenzonitrile]	32.5	115	–	–	–
O=c1[nH]c2cc(-c3cccc4ccccc34)ccc2c(=O)n1-c1cncc2ccccc12 [Example 26]	–	47900	40100	–	–
COc1cc(-c2nc3c(s2)c(=O)n(-c2cncc4ccccc24)c(=O)n3CC#N)c(Cl)cc1F [Example 705]	4.74	8.11	–	–	–
Cn1ncc2cncc(-n3c(=O)c4sc(-c5cc(Cl)ccc5C#N)cc4n(CCC#N)c3=O)c21 [Example 774]	6.33	19.4	–	–	–
Cc1ccc(-c2cc3[nH]c(=O)n(-c4cncc5ccccc45)c(=O)c3s2)c(Cl)c1 [Example 339]	–	48.2	14.8	–	–
COc1cc(Cl)c(-c2ccc3c(=O)n(-c4cncc5ccccc45)c(=O)[nH]c3c2)cc1OC [Example 255]	–	332	307	–	–
COc1cc(-c2cc3c(s2)c(=O)n(-c2cccnc2)c(=O)n3CCC#N)c(Cl)cc1F [Example 982]	4.12	7.89	–	–	–
COc1cc(-c2ccc3c(=O)n(-c4cncc5ccccc45)c(=O)[nH]c3c2)c(Cl)cc1Cl [Example 316]	–	322	1070	–	–
O=c1[nH]c2cc(-c3ccccc3F)sc2c(=O)n1-c1cncc2ccccc12 [Example 9]	–	295	159	–	–
O=c1[nH]c2cc(-c3ccccc3Cl)ccc2c(=O)n1-c1cccnc1 [Example 122]	–	3910	1010	–	–
O=c1[nH]c2cc(-c3c(Cl)cccc3-c3ccnc(C(F)(F)F)c3)ccc2c(=O)n1-c1cncc2ccccc12 [Example 334]	–	81.9	78.6	–	–
COc1cc(-c2cc3[nH]c(=O)n(-c4cncc5cnn(C)c45)c(=O)c3s2)c(C)cc1Cl [Example 666]	24	–	–	55.6	–
O=c1[nH]c2cc(-c3ccccc3Cl)sc2c(=O)n1-c1cncc2ccc(N3C[C@H]4C[C@@H]3CO4)cc12 [Example 394]	5.1	5.75	–	–	–
O=c1[nH]c2cc(-c3cc(O)ccc3Cl)ccc2c(=O)n1-c1cncc2ccccc12 [Example 296]	–	1430	384	–	–
COc1cc(-c2cc3[nH]c(=O)n(-c4cncc5ccccc45)c(=O)c3s2)c(Cl)cc1F (single isomer, unassigned) [Example 557, 6-(2-chloro-4-fluoro-5-methoxyphenyl)-3-(isoquinolin-4-yl)thieno[3,2-d]pyrimidine-2,4(1H,3H)-dione]	103	–	–	–	65.4
Cc1ccc(Cl)c(-c2ccc3c(=O)n(-c4cncc5ccccc45)c(=O)[nH]c3c2)c1 [Example 252]	–	321	151	–	–

Structure (SMILES)	IC50 [1, 2] [nM]	EC50 (SARS-CoV-2-NLuc; [3]) [nM]	IC50 [1, 4] [nM]	EC50 (SARS-CoV-2-NLuc; [5]) [nM]	EC50 (SARS-CoV-2-NLuc; read-out: MPro EC50) [nM]
CS(=O)(=O)c1ccc(-c2cccc(Cl)c2-c2ccc3c(=O)n(-c4cncc5ccccc45)c(=O)[nH]c3c2)cn1 [Example 204]	–	49	11.7	–	–
COc1cc(-c2cc3[nH]c(=O)n(-c4cncc5scc(C)c45)c(=O)c3s2)c(Cl)cc1F (single isomer, unassigned) [Example 1056, 6-(2-chloro-4-fluoro-5-methoxyphenyl)-3-(3-methylthieno[2,3-c]pyridin-4-yl)thieno[3,2-d]pyrimidine-2,4(1H,3H)-dione]	2.34	–	–	–	< 1.01
O=c1[nH]c2cc(-c3ccccc3Cl)ccc2c(=O)n1-c1cncc2ccccc12 (single isomer, unassigned) [Example 104, 7-(2-chlorophenyl)-3-(isoquinolin-4-yl)quinazoline-2,4(1H,3H)-dione]	–	–	6790	–	3920
CC1(O)CN(c2ccc3cncc(-n4c(=O)[nH]c5cc(-c6ccccc6Cl)sc5c4=O)c3c2)C1 [Example 390]	–	19.1	11.6	–	–
COc1cc(-c2cc3c(s2)c(=O)n(-c2cncc4c(C)nn(C)c24)c(=O)n3CCC#N)c(Cl)cc1F [Example 979, 3-(6-(2-chloro-4-fluoro-5-methoxyphenyl)-3-(1,3-dimethyl-1H-pyrazolo[4,3-c]pyridin-7-yl)-2,4-dioxo-3,4-dihydrothieno[3,2-d]pyrimidin-1(2H)-yl)propanenitrile]	3.71	3.07	–	–	–
COc1cnc(Cl)c(-c2cc3c(s2)c(=O)n(-c2cncc4cnn(C)c24)c(=O)n3CCC#N)c1 (single isomer, unassigned) [Example 1091, 3-(6-(2-chloro-5-methoxypyridin-3-yl)-3-(1-methyl-1H-pyrazolo[4,3-c]pyridin-7-yl)-2,4-dioxo-3,4-dihydrothieno[3,2-d]pyrimidin-1(2H)-yl)propanenitrile]	141	–	–	–	451
COc1cnc(Cl)c(-c2cc3[nH]c(=O)n(-c4cncc5cccc(F)c45)c(=O)c3s2)c1 [Example 760]	15.6	93.7	–	–	–
COc1cc(-c2cc3c(s2)c(=O)n(-c2cncc4cnn(C5CC5)c24)c(=O)n3CC#N)c(Cl)cc1F [Example 691]	3.07	2.91	–	–	–
CCS(=O)(=O)c1cccc(-c2cccc(Cl)c2-c2ccc3c(=O)n(-c4cncc5ccccc45)c(=O)[nH]c3c2)c1 [Example 284]	–	35.6	25.8	–	–
Cc1csc2cncc(-n3c(=O)[nH]c4cc(-c5c(Cl)cccc5-c5cncc(C#N)c5)sc4c3=O)c12 [Example 674]	3.85	2.82	–	–	–
COc1cc(-c2cc3c(s2)c(=O)n(-c2cncc(C4CC4)c2)c(=O)n3CCC#N)c(Cl)cc1F [Example 924]	2.52	5.31	–	–	–
COc1cc(-c2cc3c(s2)c(=O)n(-c2cncc(Cl)c2)c(=O)n3CCC#N)c(C#N)cc1F [Example 866]	5.61	12.9	–	–	–
Cn1cc2ccc(-n3c(=O)n(-c4cncc5ccccc45)c(=O)c4sc(-c5ccccc5Cl)cc43)cc2n1 [Example 152, 6-(2-chlorophenyl)-3-(isoquinolin-4-yl)-1-(2-methyl-2H-indazol-6-yl)thieno[3,2-d]pyrimidine-2,4(1H,3H)-dione]	–	149	85.8	–	–
COc1ccc(C#N)c(-c2cc3[nH]c(=O)n(-c4cncc5ccc(N6CC(F)(F)OC(F)(F)C6)cc45)c(=O)c3s2)c1 [Example 230]	–	128	23.8	–	–
COc1cc(-c2cc3[nH]c(=O)n(-c4cncc(Cl)c4Cl)c(=O)c3s2)c(Cl)cc1F [Example 742]	15.2	26.2	–	–	–
Cc1ccc2cncc(-n3c(=O)[nH]c4cc(-c5ccccc5Cl)ccc4c3=O)c2c1 [Example 109]	–	423	265	–	–
Cc1c2c(-n3c(=O)c4sc(-c5cc(F)c(F)cc5Cl)cc4n(CCC#N)c3=O)cncc2nn1C [Example 798]	38.7	–	–	137	–
Cn1ncc2cncc(-n3c(=O)c4sc(-c5ccc(C#N)cc5Cl)cc4n(CCC#N)c3=O)c21 [Example 1025]	86.4	244	–	–	–
COc1ccc(C#N)c(-c2ccc3c(=O)n(-c4cncc5ccccc45)c(=O)[nH]c3c2)c1 (single isomer, unassigned) [Example 569, 2-[3-(4-isoquinolyl)-2,4-dioxo-1H-quinazolin-7-yl]-4-methoxy-benzonitrile]	8.41	–	–	–	20.5
O=c1[nH]c2cc(-c3c(Cl)cccc3OCc3ccnnc3)ccc2c(=O)n1-c1cncc2ccccc12 [Example 93]	–	95	11.4	–	–
COc1cc(-c2cc3c(s2)c(=O)n(-c2cncc(C)c2)c(=O)n3CCC#N)c(C#N)cc1F [Example 876]	2.76	6.25	–	–	–
COc1cc(-c2cc3c(s2)c(=O)n(-c2cncc4cn[nH]c24)c(=O)n3CCC#N)c(Cl)cc1F [Example 1047]	5.53	12.4	–	–	–
COc1cc(-c2cc3c(s2)c(=O)n(-c2cncc4cccnc24)c(=O)n3C)c(Cl)cc1F [Example 994]	8.46	8.41	–	–	–
N#Cc1ccc(-c2ccc3c(=O)n(-c4cncc5ccccc45)c(=O)[nH]c3c2)cc1 [Example 35]	–	> 50000	> 100000	–	–
